Patent US4866076A, “Biologically active compounds” (Smith Kline & French Laboratories Limited, priority 1987, dated 1989)
Where a name gives a salt, the structure may show the parent alone.

Molecular target: T1, TXA2 receptors (Homo sapiens, UniProt P21731)
T1 construct: from tissue; host or cells: human platelets
T1 sequence (P21731 1-343): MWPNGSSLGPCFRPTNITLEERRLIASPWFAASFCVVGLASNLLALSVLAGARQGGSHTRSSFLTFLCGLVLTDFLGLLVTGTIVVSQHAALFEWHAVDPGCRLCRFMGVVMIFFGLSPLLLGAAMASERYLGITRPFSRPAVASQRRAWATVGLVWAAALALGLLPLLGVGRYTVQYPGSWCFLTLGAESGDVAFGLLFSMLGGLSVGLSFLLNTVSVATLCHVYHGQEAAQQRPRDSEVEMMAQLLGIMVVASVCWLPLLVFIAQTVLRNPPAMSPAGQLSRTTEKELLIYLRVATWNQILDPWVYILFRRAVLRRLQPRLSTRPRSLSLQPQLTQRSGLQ
Assay: human platelet binding assay ([^125 I]PTA-OH receptor ligand)
Settings: 50% inhibition of specific [^125 I]PTA-OH binding; human platelets
Description: As indicated above, compounds of the formula (I) have biological activity that is indicative of an ability to antagonise TXA2 receptors. […] The platelet binding assay used was essentially the method described by Mais et al, J. Pharm. Exp. Ther., 1985, 235(3), 729-734 where [^125 I]PTA-OH was used as the receptor ligand. The IC50 values represent the concentration which produces a 50% inhibition of specific [^125 I]PTA-OH binding. The compounds of Examples 1 to 6 were tested in the human platelet binding assays as described above and the results obtained are shown in the Table below: […]

SMILES	IC50
O=C(O)c1ccccc1CN1CCc2ccc(S(=O)(=O)Nc3cccc(Cl)c3)cc2C1 [Example 1, 2-[[7-(3-chlorophenylsulphamoyl)-1,2,3,4-tetrahydroisoquinolin-2-yl]methyl]benzoic acid]	2.6 µM
O=C(O)c1cccc(CN2CCc3ccc(S(=O)(=O)Nc4cccc(Cl)c4)cc3C2)c1 [Example 2, 3-[[7-(3-Chlorophenylsulphamoyl)-1,2,3,4-tetrahydroisoquinolin-2-yl]methyl]benzoic acid]	0.5 µM
O=C(O)c1ccc(CN2CCc3ccc(S(=O)(=O)Nc4cccc(Cl)c4)cc3C2)cc1 [Example 3, 4-[[7-(3-Chlorophenylsulphamoyl)-1,2,3,4-tetrahydroisoquinolin-2-yl]methyl]benzoic acid]	4 µM
COC(=O)c1ccc(CN2CCc3ccc(S(=O)(=O)Nc4cccc(Cl)c4)cc3C2)o1 [Example 4, methyl-5-[[7-(3-chlorophenylsulphamoyl)-1,2,3,4-tetrahydroisoquinolin-2-yl]methyl]-2-furoate]	5 µM

Next, values leading:

IC50	SMILES
0.76 µM	O=C(O)c1ccc(CN2CCc3ccc(S(=O)(=O)Nc4cccc(Cl)c4)cc3C2)o1 [Example 5, 5-[[7-(3-chlorophenylsulphamoyl)-1,2,3,4-tetrahydroisoquinolin-2-yl]methyl]-2-furoic acid]
2.9 µM	O=C(O)c1ccnc(CN2CCc3ccc(S(=O)(=O)Nc4cccc(Cl)c4)cc3C2)c1 [Example 6, 2-[[7-(3-chlorophenylsulphamoyl)-1,2,3,4-tetrahydroisoquinolin-2-yl]methyl]isonicotinic acid hydrochloride]
